Laboratory results: patent US8981112B2, “Inhibitors of β-secretase” (Boehringer Ingelheim International GmbH, priority 2012, dated 2015)

Experiments:
[1] = tested on: brain amyloid peptides Aβ1-x; experiment: Rat Brain Aβ Lowering Assay (Assay 5); type: in vivo; conditions: 3 hrs after dosing
Experimental: Rat Brain Aβ Lowering Assay (Assay 5)
The animals were sacrificed 3 hrs after dosing, and brains were excised, dissected into cerebellum and left and right cerebra and flash-frozen in liquid nitrogen.
The cerebrum was homogenized (5 volumes per weight) in 20 mM Tris-HCL, pH 8.5, 0.2% Triton-X100 supplemented with protease inhibitors (complete, Roche Applied Science) at 4° C. using a glass Dounce homogenizer. The homogenate was centrifuged at 120,000×g for 60 min at 4° C., and the supernatant was collected and analyzed for Ab1-x using immunoassay with chemiluminescent detection (Meso-Scale Discovery, Rockville, Md. (MSD)).
Streptavidin 96-well plates (MSD) were pre-blocked with 5% Blocker A solution (MSD) for 1 hr at rt on an orbital shaker and washed 4 times with phosphate buffered saline (PBS). The wells were pre-coated with 20 ng/well of biotinylated antibody SIG-39155 (Clone M3.2, specific for amino acids 10-15 of the rodent Aβ) for 1 hr at rt and washed 4 times with PBS. For Aβ1-x analysis, 25 μl of either the cleared brain lysates or Aβ1-40 standards (8-500 pg/ml, with 2× increment) were incubated for 1 hr at rt with constant shaking. The wells were washed 4 times with PBS, and 25 μl of the detection antibody (Sulfo-TAG labeled anti-Aβ40 antibody supplied by MSD) was added and incubated for 1 hr at rt. After 4 washes with PBS, 150 μl of the chemiluminescence detection reagent (Read Buffer T, MSD) was added, and the plate was read on an MSD Sector Imager 6000 instrument. The calibration curve was fit into a non-linear four-parameter regression model, and the Aβ1-x concentrations were calculated for each well containing the cleared brain lysates. The percent of Aβ lowering was calculated based on the difference with the average Aβ concentration obtained for the brains from the animals treated with vehicle alone.

[2] = In Vitro Phospholipidosis Assay (Assay 4), Nile red staining; type: cell-based; conditions: human, first effect concentration, U937 cells, read-out: Phospholipidosis FEC IC50 μM (assay 4)
Experimental: In Vitro Phospholipidosis Assay (Assay 4)
The phospholipidogenic potential of test compounds was assayed using the human hematopoetic U937 cell line. The test principle was to analyze the phospholipid content by staining the cells with the fluorescent dye Nile red.
U937 cells were seeded into cell culture plates at 0.5×10^6 cells/mL in RPMI medium containing 10% FBS, 1% DMSO, and 0.005% gentamicin. The cells were then cultivated with or without different concentrations of test compounds for 48 h under standard culture conditions.
For harvesting the cells were centrifuged at 130×g for 4 min and washed once with PBS. Then 2×0.5 mL cell suspension was prepared for non-fixed cell measurement (0.5 mL for propidium iodide (PI) viability measurement and 0.5 mL for Nile red measurement).
The remaining cells were fixed with 3.7% formaldehyde for 30 min. After a further centrifugation step cells were resuspended with 1.3 mL Nile red working solution (1 μg/mL) and incubated for 5 min at rt. The cell suspension was then washed twice with 3 mL PBS and centrifuged with 130×g for 4 min. The supernatant was discarded and the cells were resuspended with 0.5 mL PBS and kept for flow cytometry measurement. For Nile red staining of the 0.5 mL non-fixed cell samples, 50 μL of a ready to use Nile red solution (10 μg/mL) were added per sample. Samples were kept on ice for 5 min. Thereafter, they were washed once with 4 mL PBS (4° C., 250×g for 8 min) and finally resuspended in 400 μL PBS and kept for flow cytometry measurement.
For the viability measurement, 12.5 μL of the ready to use PI solution (10 μg/mL) were added to the 0.5 mL non-fixed cell suspension. After 15 min of incubation on ice, the samples were measured by flow cytometry using a Coulter Epics XL/MCL flow cytometer.
The viability of the cells of each sample was determined by flow cytometry measurement of the PI content at channel 2 (568-590 nm). Cut-off gates for the fluorescence-dependent differentiation between live and dead cells were defined based on the analysis of cell culture medium control samples.
Only samples with a cell viability of >=90% relative to control samples were analyzed for phospholipidosis. For that, each Nile red sample (non-fixed and fixed samples) was measured by flow cytometry at channel 1 (504-541 nm) and channel 4 (660-680 nm).
For each channel, relative Nile red fluorescence intensity of a test sample was calculated compared to control samples and expressed as percentage of control fluorescence intensity. The assessment of the phospholipidogenic potential and the first effect concentration (FEC) of a test compound was done manually based on the fluorescence intensities at both wavelengths for the fixed cells as well as for the non-fixed cells.

[3] = tested on: production of Abeta1-x peptides in H4 neuroglioma cell line stably expressing human APP; experiment: H4-APPwt Cell-Based Assay (Assay 2), Abeta1-x production; conditions: H4 neuroglioma cells expressing human APP, Abeta1-x; read-out: H4-APPwt cell IC50 nM (assay 2)
Experimental: H4-APPwt Cell-Based Assay (Assay 2)
Cellular potency of the compounds of the invention was assessed in an assay monitoring production of Abeta1-x peptides in the H4 neuroglioma cell line (ATCC, Cat. #HTB-148) stably expressing human APP, using an immunoassay such as AlphaLISA (PerkinElmer, Cat.# AL288). Tested compounds were dissolved in DMSO and pre-diluted in the culture medium (DMEM containing 10% FBS and 1% penicillin/streptomycin) to achieve twice the final concentration of the compounds in the assay. Equal volumes of the 2× solutions of the tested compounds and cell suspension were added to a 96-well culture plate, so that each well contained ˜10,000 cells in a final volume of 200 μl. Final concentration of DMSO in the assay was 0.2%. The plates were incubated for 5 hrs at 37° C., 5% CO2 to allow cells to attach to the bottom of the wells in the presence of the tested compounds. Then the media was removed and replaced with fresh media containing tested compounds at the same final concentration. The plates were incubated for 18 hrs at 37° C., 5% CO2. Concentrations of Ab1-x were determined using AlphaLISA immunoassay (PerkinElmer, Cat.# AL288) following manufacturer's protocol. Concentrations of Abeta1-x in the wells containing either DMSO or 10 μM beta-secretase inhibitor (BACE inhibitor IV, EMD Bioscience, Cat. #565788) were used as uninhibited and background controls, correspondingly, for calculating percent inhibition values for each well with the tested compounds.

IC50 [3]	SMILES	% Aβ Reduction ([1]; single oral dose 25 mg/kg)	IC50 at 48 h [2]	% Aβ Reduction ([1]; single oral dose 12.5 mg/kg)	% Aβ Reduction ([1]; single oral dose 50 mg/kg)	% Aβ Reduction ([1]; single oral dose 30 mg/kg)
0.12 nM	CO[C@H]1[C@H](C)C[C@@]2(Cc3ccc(C#N)cc3[C@]23N=C(N)N(C[C@H]2CCCO2)C3=O)C[C@@H]1C [Example 14]	67%	> 200 µM			
0.18 nM	CO[C@H]1[C@H](C)C[C@@]2(Cc3ccc(C#N)cc3[C@]23N=C(N)N(CC2(F)CCOCC2)C3=O)C[C@@H]1C [Example 23]	68%	> 200 µM			
0.26 nM	CO[C@H]1[C@H](C)C[C@@]2(Cc3ccc(C#N)cc3[C@]23N=C(N)N(C[C@H]2COCCO2)C3=O)C[C@@H]1C [Example 22]		> 400 µM	45%		
0.11 nM	CO[C@H]1[C@H](C)C[C@@]2(Cc3ccc(C#N)cc3[C@]23N=C(N)N(C[C@@H]2CCCO2)C3=O)C[C@@H]1C [Example 15]	62%	200 µM			
0.48 nM	CO[C@H]1[C@H](C)C[C@@]2(Cc3ccc(C#N)cc3[C@]23N=C(N)N(C[C@@H]2COCCO2)C3=O)C[C@@H]1C [Example 21]		400 µM		59%	
0.28 nM	CC[C@@H]1C[C@]2(CC[C@H]1OC)Cc1ccc(C#N)cc1[C@]21N=C(N)N(CC2(F)CCOCC2)C1=O [Example 4]	75%	> 400 µM			
0.49 nM	CO[C@H]1CC[C@@]2(Cc3ccc(C#N)cc3[C@]23N=C(N)N(CC2(C)COC2)C3=O)C[C@@H]1C [Example 8]	37%	> 200 µM			
1.9 nM	CO[C@H]1CC[C@@]2(Cc3ccc(C#N)cc3[C@]23N=C(N)N(Cc2ccncn2)C3=O)C[C@@H]1C [Example 9]	37%	400 µM			
0.29 nM	CC[C@@H]1C[C@]2(CC[C@H]1OC)Cc1ccc(C#N)cc1[C@]21N=C(N)N(CC2CCOCC2)C1=O [Example 2]		200 µM			42%
0.89 nM	CO[C@H]1[C@H](C)C[C@@]2(Cc3ccc(C#N)cc3[C@]23N=C(N)N(CC(C)(C)F)C3=O)C[C@@H]1C [Example 17]	70%	> 200 µM			
0.2 nM	CC[C@@H]1C[C@@]2(Cc3ccc(C#N)cc3[C@]23N=C(N)N(CC(C)(C)F)C3=O)C[C@H](C)[C@H]1OC [Example 26]	71%	> 200 µM			
1.02 nM	CO[C@H]1[C@H](C)C[C@@]2(Cc3ccc(C#N)cc3[C@]23N=C(N)N(C[C@@H]2CCO2)C3=O)C[C@@H]1C (stereo in doubt) [Example 18]	56%	> 400 µM			
0.92 nM	CO[C@H]1[C@H](C)C[C@@]2(Cc3ccc(C#N)cc3[C@]23N=C(N)N(CC2COC2)C3=O)C[C@@H]1C [Example 13]		200 µM			47%
1.1 nM	CO[C@H]1[C@H](C)C[C@@]2(Cc3ccc(C#N)cc3[C@]23N=C(N)N(C2COC2)C3=O)C[C@@H]1C [Example 12]	39%	400 µM			
